Data as given in ChEMBL document CHEMBL5463725, “Data for DCP probe BAY-277” (2023).

How the values were obtained:
[1] = molecular target: T1, Muscarinic acetylcholine receptor M4 (Homo sapiens, UniProt P08173); test: GPCRScan assay: inhibition of M4; parameters: radioligand conc. used [nm] 0.3 – 1.0, parental cells stable CHO
T1 sequence (P08173 whole entry): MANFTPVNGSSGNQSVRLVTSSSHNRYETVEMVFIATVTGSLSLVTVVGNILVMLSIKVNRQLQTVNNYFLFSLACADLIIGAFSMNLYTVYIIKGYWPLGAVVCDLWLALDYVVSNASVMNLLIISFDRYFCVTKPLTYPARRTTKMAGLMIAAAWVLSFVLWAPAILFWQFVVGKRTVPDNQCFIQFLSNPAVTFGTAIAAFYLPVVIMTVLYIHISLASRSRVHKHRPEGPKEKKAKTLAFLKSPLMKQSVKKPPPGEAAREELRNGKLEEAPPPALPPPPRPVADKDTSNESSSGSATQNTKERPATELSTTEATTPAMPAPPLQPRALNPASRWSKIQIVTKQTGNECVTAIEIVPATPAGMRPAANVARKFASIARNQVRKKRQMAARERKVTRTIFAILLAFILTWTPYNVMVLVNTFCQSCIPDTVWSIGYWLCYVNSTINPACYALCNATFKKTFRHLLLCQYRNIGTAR

[2] = molecular target: Serine/threonine-protein kinase haspin (Homo sapiens) (UniProt Q8TF76); test: Inhibition of Haspin(h) at 10.0 µM in the Eurofins Kinase panel; settings: Compound concentration 10.0 uM
[3] = molecular target: Tyrosine-protein kinase Lck (Homo sapiens) (UniProt P06239); test: Inhibition of Lck(h) at 10.0 µM in the Eurofins Kinase panel; settings: Compound concentration 10.0 uM
[4] = molecular target: Beta-adrenergic receptor kinase 1 (Homo sapiens) (UniProt P25098); test: Inhibition of GRK2(h) at 10.0 µM in the Eurofins Kinase panel; settings: Compound concentration 10.0 uM
[5] = molecular target: Aldo-keto reductase family 1 member B1 (Rattus norvegicus) (UniProt P07943); test: Inhibition of Aldose Reductase at 10.0 µM in the Eurofins Panlabs Safety Screen; settings: Compound concentration 10.0 uM
[6] = molecular target: Monoamine oxidase A (MAO-A) (Homo sapiens, UniProt P21397); test: Inhibition of Monoamine Oxidase MAO-A at 10.0 µM in the Eurofins Panlabs Safety Screen; settings: compound concentration 10 uM
[7] = molecular target: Monoamine oxidase B (MAO-B) (Homo sapiens, UniProt P27338); test: Inhibition of Monoamine Oxidase MAO-B at 10.0 µM in the Eurofins Panlabs Safety Screen; settings: compound concentration 10 uM
[8] = molecular target: Nitric oxide synthase 1 (Homo sapiens) (UniProt P29475); test: Inhibition of Nitric Oxide Synthase, Neuronal (nNOS) at 10.0 µM in the Eurofins Panlabs Safety Screen; settings: Rattus norvegicus; Compound concentration 10.0 uM
[9] = molecular target: cGMP-inhibited 3',5'-cyclic phosphodiesterase 3A (Homo sapiens) (UniProt Q14432); test: Inhibition of Phosphodiesterase PDE3A at 10.0 µM in the Eurofins Panlabs Safety Screen; settings: Compound concentration 10.0 uM
[10] = molecular target: cGMP-specific 3',5'-cyclic phosphodiesterase (Homo sapiens) (UniProt O76074); test: Inhibition of Phosphodiesterase PDE5A at 10.0 µM in the Eurofins Panlabs Safety Screen; settings: Compound concentration 10.0 uM
[11] = molecular target: Adenosine receptor A1 (Homo sapiens) (UniProt P30542); test: Inhibition of Adenosine A1 at 10.0 µM in the Eurofins Panlabs Safety Screen; settings: Compound concentration 10.0 uM
[12] = molecular target: Adenosine receptor A3 (Homo sapiens) (UniProt P0DMS8); test: Inhibition of Adenosine A3 at 10.0 µM in the Eurofins Panlabs Safety Screen; settings: Compound concentration 10.0 uM
[13] = molecular target: Beta-2 adrenergic receptor (Homo sapiens) (UniProt P07550); test: Inhibition of Adrenergic beta2 at 10.0 µM in the Eurofins Panlabs Safety Screen; settings: Compound concentration 10.0 uM
[14] = molecular target: Beta-3 adrenergic receptor (Homo sapiens) (UniProt P13945); test: Inhibition of Adrenergic beta3 at 10.0 µM in the Eurofins Panlabs Safety Screen; settings: Compound concentration 10.0 uM
[15] = molecular target: Type-2 angiotensin II receptor (Homo sapiens) (UniProt P50052); test: Inhibition of Angiotensin AT2 at 10.0 µM in the Eurofins Panlabs Safety Screen; settings: Compound concentration 10.0 uM
[16] = molecular target: B2 bradykinin receptor (Homo sapiens) (UniProt P30411); test: Inhibition of Bradykinin B2 at 10.0 µM in the Eurofins Panlabs Safety Screen; settings: Compound concentration 10.0 uM
[17] = molecular target: D(1A) dopamine receptor (Homo sapiens) (UniProt P21728); test: Inhibition of Dopamine D1 at 10.0 µM in the Eurofins Panlabs Safety Screen; settings: Compound concentration 10.0 uM
Histamine H3 receptor = Histamine H3 receptor (Homo sapiens, UniProt Q9Y5N1); test: Inhibition of Histamine H3 at 10.0 µM in the Eurofins Panlabs Safety Screen; settings: Compound concentration 10.0 uM
[18] = molecular target: T2, Muscarinic acetylcholine receptor M1 (Homo sapiens) (UniProt P11229); test: Inhibition of Muscarinic M1 at 10.0 µM in the Eurofins Panlabs Safety Screen; settings: Compound concentration 10.0 uM
T2 sequence (whole entry): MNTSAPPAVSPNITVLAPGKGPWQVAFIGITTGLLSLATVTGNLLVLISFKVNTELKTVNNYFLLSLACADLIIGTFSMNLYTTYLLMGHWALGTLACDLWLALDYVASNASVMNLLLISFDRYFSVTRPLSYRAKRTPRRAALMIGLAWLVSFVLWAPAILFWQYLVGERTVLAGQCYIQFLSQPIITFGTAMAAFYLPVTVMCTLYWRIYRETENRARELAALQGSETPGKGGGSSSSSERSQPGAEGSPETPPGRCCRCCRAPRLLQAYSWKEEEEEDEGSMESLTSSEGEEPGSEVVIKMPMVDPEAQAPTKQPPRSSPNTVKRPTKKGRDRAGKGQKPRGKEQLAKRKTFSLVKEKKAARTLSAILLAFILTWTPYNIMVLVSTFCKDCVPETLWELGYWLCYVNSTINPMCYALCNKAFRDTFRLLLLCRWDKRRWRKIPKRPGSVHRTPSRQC

[19] = molecular target: Kappa-type opioid receptor (Homo sapiens) (UniProt P41145); test: Inhibition of Opiate kappa(OP2, KOP) at 10.0 µM in the Eurofins Panlabs Safety Screen; settings: Compound concentration 10.0 uM
[20] = molecular target: Mu-type opioid receptor (Homo sapiens) (UniProt P35372); test: Inhibition of Opiate µ(OP3, MOP) at 10.0 µM in the Eurofins Panlabs Safety Screen; settings: Compound concentration 10.0 uM
[21] = molecular target: Adenosine Transporter (Cavia porcellus) (UniProt H0V4R7+H0UUG1+H0V3Z5); test: Inhibition of Transporter, Adenosine at 10.0 µM in the Eurofins Panlabs Safety Screen; type: protein assay; settings: Compound concentration 10.0 uM
[22] = molecular target: 5-hydroxytryptamine receptor 1B (Homo sapiens) (UniProt P28222); settings: Compound concentration 10.0 uM
[23] = molecular target: Kappa-type opioid receptor (Homo sapiens) (UniProt P41145); settings: Compound concentration 10.0 uM
[24] = molecular target: Histamine H2 receptor (Homo sapiens) (UniProt P25021); settings: Compound concentration 10.0 uM
[25] = molecular target: Beta-2 adrenergic receptor (Homo sapiens) (UniProt P07550); settings: Compound concentration 10.0 uM
[26] = molecular target: T3, Muscarinic acetylcholine receptor M4 (Homo sapiens) (UniProt P08173); settings: Compound concentration 10.0 uM
T3 sequence (whole entry): T1 sequence (P08173 whole entry)

[27] = molecular target: Sigma non-opioid intracellular receptor 1 (Homo sapiens) (UniProt Q99720); settings: Compound concentration 10.0 uM
Chain of Sigma non-opioid intracellular receptor 1 (Homo sapiens) (Q99720 whole entry): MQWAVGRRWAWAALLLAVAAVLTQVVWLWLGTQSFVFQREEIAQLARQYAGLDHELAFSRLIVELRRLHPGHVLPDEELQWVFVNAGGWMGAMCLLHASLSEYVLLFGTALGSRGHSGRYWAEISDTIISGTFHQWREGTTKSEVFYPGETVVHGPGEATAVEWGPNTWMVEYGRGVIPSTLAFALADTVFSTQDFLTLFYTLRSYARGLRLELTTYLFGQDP

Chain of 5-hydroxytryptamine receptor 1B (Homo sapiens) (P28222 whole entry): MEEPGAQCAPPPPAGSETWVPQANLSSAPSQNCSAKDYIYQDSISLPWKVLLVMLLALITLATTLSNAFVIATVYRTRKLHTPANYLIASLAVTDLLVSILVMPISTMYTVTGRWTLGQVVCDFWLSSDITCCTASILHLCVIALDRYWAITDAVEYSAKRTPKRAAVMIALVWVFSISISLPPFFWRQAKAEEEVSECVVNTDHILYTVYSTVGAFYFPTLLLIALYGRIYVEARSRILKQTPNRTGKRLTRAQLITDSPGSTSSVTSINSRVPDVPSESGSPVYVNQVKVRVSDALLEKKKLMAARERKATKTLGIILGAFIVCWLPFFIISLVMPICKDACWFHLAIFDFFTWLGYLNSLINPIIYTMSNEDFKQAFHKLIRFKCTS
Chain of Histamine H2 receptor (Homo sapiens) (P25021 whole entry): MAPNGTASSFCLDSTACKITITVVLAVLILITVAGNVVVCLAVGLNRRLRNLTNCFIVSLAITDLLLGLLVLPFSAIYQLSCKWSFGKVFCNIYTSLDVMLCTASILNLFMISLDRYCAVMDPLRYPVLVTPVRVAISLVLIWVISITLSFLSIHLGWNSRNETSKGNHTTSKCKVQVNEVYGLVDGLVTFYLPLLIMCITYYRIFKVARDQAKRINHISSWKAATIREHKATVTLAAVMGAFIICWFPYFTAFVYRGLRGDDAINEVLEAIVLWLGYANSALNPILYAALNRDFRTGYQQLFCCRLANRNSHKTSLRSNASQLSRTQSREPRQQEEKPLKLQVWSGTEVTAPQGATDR
Chain of Beta-2 adrenergic receptor (Homo sapiens) (P07550 whole entry, looked up): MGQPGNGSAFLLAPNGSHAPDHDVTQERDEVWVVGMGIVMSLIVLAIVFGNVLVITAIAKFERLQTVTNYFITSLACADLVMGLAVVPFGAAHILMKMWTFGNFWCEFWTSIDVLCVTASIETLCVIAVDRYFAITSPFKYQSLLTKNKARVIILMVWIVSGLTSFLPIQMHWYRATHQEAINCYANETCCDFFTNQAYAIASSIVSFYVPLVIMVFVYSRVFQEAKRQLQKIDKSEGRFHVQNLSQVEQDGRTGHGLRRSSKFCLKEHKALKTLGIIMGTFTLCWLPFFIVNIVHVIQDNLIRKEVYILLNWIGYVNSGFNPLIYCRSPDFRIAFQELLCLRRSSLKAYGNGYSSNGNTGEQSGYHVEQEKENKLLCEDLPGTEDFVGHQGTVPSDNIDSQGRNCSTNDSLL
Chain of Kappa-type opioid receptor (Homo sapiens) (P41145 whole entry): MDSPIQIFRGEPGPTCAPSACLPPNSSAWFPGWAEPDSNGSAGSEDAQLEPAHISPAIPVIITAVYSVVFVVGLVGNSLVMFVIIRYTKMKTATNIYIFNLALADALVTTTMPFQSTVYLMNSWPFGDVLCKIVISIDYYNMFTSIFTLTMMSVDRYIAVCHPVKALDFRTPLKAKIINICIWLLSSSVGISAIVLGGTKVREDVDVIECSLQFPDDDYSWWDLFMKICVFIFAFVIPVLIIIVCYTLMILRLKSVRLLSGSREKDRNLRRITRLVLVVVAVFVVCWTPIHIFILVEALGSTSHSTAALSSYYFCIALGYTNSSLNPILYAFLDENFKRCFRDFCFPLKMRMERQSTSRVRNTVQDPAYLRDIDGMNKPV
Chain of Adenosine receptor A1 (Homo sapiens) (P30542 whole entry): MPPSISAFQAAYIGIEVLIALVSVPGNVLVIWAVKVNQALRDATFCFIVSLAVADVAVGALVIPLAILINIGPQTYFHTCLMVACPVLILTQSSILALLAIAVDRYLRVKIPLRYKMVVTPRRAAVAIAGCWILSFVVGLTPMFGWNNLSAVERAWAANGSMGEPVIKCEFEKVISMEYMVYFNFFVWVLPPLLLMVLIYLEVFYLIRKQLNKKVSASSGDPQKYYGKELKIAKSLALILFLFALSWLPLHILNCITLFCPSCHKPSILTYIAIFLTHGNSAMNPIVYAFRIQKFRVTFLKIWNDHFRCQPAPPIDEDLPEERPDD
Chain of Serine/threonine-protein kinase haspin (Homo sapiens) (Q8TF76 whole entry): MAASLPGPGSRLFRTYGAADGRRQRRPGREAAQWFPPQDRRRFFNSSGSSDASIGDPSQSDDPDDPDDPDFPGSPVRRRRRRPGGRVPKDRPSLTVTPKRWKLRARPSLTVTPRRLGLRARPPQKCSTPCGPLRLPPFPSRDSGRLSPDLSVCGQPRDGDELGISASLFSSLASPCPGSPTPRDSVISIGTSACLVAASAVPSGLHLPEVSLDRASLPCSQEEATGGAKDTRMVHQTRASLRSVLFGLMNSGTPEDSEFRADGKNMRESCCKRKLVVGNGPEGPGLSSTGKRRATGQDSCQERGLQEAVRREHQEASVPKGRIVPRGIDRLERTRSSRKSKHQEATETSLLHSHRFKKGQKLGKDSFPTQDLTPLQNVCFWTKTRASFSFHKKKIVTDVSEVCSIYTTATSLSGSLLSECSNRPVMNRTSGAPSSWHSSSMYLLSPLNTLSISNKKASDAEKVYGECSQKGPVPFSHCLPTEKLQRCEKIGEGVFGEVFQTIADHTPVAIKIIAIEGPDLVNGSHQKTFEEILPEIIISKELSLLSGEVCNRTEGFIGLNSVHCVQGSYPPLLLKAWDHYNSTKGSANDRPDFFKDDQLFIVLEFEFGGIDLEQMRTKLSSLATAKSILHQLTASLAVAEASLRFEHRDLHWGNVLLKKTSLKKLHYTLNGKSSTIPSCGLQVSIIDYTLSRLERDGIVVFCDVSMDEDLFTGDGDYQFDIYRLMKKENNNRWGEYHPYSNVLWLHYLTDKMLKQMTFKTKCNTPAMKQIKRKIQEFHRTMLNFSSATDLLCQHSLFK
Chain of Tyrosine-protein kinase Lck (Homo sapiens) (P06239 2-509 limits assumed): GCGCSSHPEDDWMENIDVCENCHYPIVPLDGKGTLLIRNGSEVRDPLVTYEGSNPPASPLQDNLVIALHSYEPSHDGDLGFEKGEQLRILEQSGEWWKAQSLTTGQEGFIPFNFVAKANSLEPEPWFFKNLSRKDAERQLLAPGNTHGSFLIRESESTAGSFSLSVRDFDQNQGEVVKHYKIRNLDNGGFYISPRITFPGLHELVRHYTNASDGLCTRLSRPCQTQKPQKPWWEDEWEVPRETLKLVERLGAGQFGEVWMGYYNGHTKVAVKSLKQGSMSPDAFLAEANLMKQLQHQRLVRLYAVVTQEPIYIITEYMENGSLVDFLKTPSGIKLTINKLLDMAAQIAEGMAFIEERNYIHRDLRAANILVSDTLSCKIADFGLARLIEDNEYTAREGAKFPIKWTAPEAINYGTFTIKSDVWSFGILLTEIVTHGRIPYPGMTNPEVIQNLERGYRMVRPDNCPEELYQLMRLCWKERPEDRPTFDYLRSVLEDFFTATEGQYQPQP
Chain of Histamine H3 receptor (Q9Y5N1 whole entry): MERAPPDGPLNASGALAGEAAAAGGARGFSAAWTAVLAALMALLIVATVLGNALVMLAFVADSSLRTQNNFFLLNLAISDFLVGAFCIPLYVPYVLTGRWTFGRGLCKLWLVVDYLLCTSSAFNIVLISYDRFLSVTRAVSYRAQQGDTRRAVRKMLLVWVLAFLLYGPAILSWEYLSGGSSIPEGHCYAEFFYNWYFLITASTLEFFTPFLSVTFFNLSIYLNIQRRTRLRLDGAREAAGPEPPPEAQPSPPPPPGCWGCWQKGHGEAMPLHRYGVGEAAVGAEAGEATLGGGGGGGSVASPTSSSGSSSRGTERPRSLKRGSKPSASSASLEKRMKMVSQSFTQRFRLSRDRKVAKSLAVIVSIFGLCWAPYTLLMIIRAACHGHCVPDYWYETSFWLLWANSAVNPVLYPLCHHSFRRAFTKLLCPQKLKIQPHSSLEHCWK
Chain of Beta-3 adrenergic receptor (Homo sapiens) (P13945 whole entry, looked up): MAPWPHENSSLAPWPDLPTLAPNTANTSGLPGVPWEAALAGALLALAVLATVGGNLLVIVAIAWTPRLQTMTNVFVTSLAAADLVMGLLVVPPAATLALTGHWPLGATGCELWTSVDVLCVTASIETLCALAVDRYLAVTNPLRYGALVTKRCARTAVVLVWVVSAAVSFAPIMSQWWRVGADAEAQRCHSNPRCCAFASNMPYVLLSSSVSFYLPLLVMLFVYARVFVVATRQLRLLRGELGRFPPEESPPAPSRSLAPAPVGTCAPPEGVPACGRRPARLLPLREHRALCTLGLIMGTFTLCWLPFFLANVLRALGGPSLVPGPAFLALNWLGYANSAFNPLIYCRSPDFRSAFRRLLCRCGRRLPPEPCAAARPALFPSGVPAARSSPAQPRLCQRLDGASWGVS
Chain of Adenosine receptor A3 (Homo sapiens) (P0DMS8 whole entry): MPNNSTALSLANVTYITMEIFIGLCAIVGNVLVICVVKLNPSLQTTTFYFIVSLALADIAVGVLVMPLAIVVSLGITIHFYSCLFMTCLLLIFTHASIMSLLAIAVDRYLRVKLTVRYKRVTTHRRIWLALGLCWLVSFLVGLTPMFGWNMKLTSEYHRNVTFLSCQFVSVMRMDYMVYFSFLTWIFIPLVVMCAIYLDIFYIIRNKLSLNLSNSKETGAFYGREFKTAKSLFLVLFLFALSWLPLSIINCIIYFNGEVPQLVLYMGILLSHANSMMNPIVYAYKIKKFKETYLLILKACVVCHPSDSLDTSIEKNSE
Chain of Type-2 angiotensin II receptor (Homo sapiens) (P50052 whole entry): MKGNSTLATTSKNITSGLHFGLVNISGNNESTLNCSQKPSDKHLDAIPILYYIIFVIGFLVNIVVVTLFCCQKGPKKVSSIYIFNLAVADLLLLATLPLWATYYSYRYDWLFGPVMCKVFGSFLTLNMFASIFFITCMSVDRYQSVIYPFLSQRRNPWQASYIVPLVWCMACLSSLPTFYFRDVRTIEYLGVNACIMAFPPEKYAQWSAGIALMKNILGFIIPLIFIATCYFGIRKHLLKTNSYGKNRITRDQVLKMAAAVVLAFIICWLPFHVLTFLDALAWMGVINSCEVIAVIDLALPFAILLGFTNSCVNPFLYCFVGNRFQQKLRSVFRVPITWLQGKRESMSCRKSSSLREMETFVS

SMILES | Ki ([1]; read-out: Ki) | Ki ([1]; read-out: pKi (converted)) | inhibition [2] | inhibition [3] | inhibition [4] | inhibition [5] | inhibition at 10 µM [6] | inhibition at 10 µM [7] | inhibition [8] | inhibition [9] | inhibition [10] | inhibition [11] | inhibition [12] | inhibition [13] | inhibition [14] | inhibition [15] | inhibition [16] | inhibition [17] | inhibition (Histamine H3 receptor) | inhibition [18] | also measured
O=C1NCCCC1N1Cc2cc(C3CCN(C(=O)CCCCCN4CCC(c5ccc(Oc6nn7cnnc7c7c6CCCC7)cc5)CC4)CC3)ccc2C1=O (stereo not drawn) | 894 nM | 891 nM | 26% | 11.9% | 15.1% | 29% | 18% | 30% | -4% | 6% | 10% | 3% | 21% | 13% | 13% | 17% | 13% | 20% | 85% | 53% | inhibition [19]: 35%; inhibition [20]: 16%; inhibition [21]: 44%; inhibition [22]: 14.2%; inhibition [23]: 29.3%; inhibition [24]: 42.1%; inhibition [25]: -7.69%; inhibition [26]: 76.1%; inhibition [27]: 28.4%
O=C1CCC(N2Cc3cc(C4CCN(C(=O)CCCCCN5CCC(c6ccc(Oc7nn8cnnc8c8c7CCCC8)cc6)CC5)CC4)ccc3C2=O)C(=O)N1 (stereo not drawn) | 632 nM | 617 nM | 28.6% | 14.3% | 11.9% | 32% | 16% | 34% | 9% | 6% | 25% | 7% | 16% | -4% | 16% | 13% | 10% | 16% | 81% | 53% | inhibition [19]: 18%; inhibition [20]: 19%; inhibition [21]: 40%; inhibition [22]: 21.9%; inhibition [23]: 27.6%; inhibition [24]: 42.2%; inhibition [25]: 2.82%; inhibition [26]: 83.5%; inhibition [27]: 28.9%
